{"source": "patent US10588972B2", "about": "“Phthalocyanine probes and uses thereof” (LI-COR, INC., priority 2014, dated 2020)", "format_in_all_cases": "cell-based", "key": {"A431 cells": {"tested_on": "A431 cells", "test": "VB-48 assay: vitality, viability and necrosis of treatments 1-10 (Table 3)", "protocol": "Briefly, A431 cells were labeled with respective probes for specific treatments (listed below); cells were rinsed and evaluated for labeling. The test include the following treatments: […], treatments 3-4 of EGF-IRDye® 700DX at 0.5 μM and radiation, treatments 5-6 of IRDye® 700DX NHSe at 5 μM and radiation, treatments 7-8 of panitumumab-IRDye® 700DX at about 0.1 μM and radiation, treatment 9 of a negative control with no probe and no irradiation, and treatment 10 of RGD-IRDye® 700DX and no irradiation. The probes were incubated for about 10 minutes and with a longer period of about 20 minutes for the RGD probe. The cells were monitored with microscopy and morphology was examination 24 hours post treatment.\nLow binding was expected for the RGD probe due to the low level of integrin receptors on A431 cells. […] By 3 hours post-irradiation all treatments except RGD (Treatment 1) show significant cytotoxicity. Vitality, viability and necrosis assays such as a VB-48 assay and JC-1 assay were performed."}, "HTB-186 cells [1]": {"tested_on": "HTB-186 cells", "test": "Caspase 3/7 assay (Example 10, Table 8)", "conditions": "32 J/cm^2, probe about 5 hours, 20 hours post irradiation; 700DX-RGD and 700DX-EGF 500 nM", "protocol": "(§1) This example illustrates the ability of IRDye® 700DX small molecule conjugates to induce apoptosis in cells, e.g., cancer cells. In this study HTB-186 cells (a desmoplastic cerebellar medulloblastoma cell line) were treated with IRDye® 700DX small molecule conjugates (IRDye® 700DX labeled chlorotoxin, anti-EGFR Affibody®, RGD peptide and EGF ligand). Apoptosis was measured by evaluating caspase 3/7 activity and mitochondrial membrane potential. […]\nThe caspase 3/7 assay was used to measure caspase 3/7 activity in the cells from the treatments listed above. […] Upon activation, the caspases cleave the substrate, and in turn, a fluorescence signal is emitted. […] The fluorescence can be detected by, for example, flow cytometry, fluorescence microscopy, and fluorescence-based image cytometry.\n(§2) To determine whether the treated cells are undergoing apoptosis, a caspase 3/7 assay and mitochondrial potential assay were performed. […] Table 8 below provides cells number, % viability, JC-1% shift, and % late apoptotic and dead cells as determined by caspase 3/7 assay."}, "HTB-186 cells [2]": {"tested_on": "HTB-186 cells", "test": "JC-1 mitochondrial membrane potential assay (Example 10, Table 8)", "conditions": "32 J/cm^2, probe about 5 hours, 20 hours post irradiation; 700DX-RGD and 700DX-EGF 500 nM", "protocol": "as §1\nIn this study a mitochondrial membrane potential assay was performed on cells from treatments 1-8 to determine whether the treated cells underwent apoptosis. […] As JC-1 dye accumulated in mitochondria, its fluorescence emission shifts from green (about 529 nm) to red (about 590 nm). The presence of red fluorescence due to JC-1 aggregate formation corresponds to regions of high mitochondrial polarization. Depolarized mitochondria are indicated by green fluorescence of the JC-1 monomers. A detectable decrease in the red/green fluorescence intensity ratio indicates mitochondrial depolarization, and thus, apoptosis. In a membrane potential assay, cells are incubated with the JC-1 dye and fluorescence is detected by, for example, flow cytometry, fluorescence microscopy, and fluorescence-based image cytometry. […]"}, "HTB-186 cells [3]": {"tested_on": "HTB-186 cells", "test": "Viability, cell number and microscopy morphology at 20 h post irradiation (Example 10)", "protocol": "This example illustrates the ability of IRDye® 700DX small molecule conjugates to induce apoptosis in cells, e.g., cancer cells. In this study HTB-186 cells (a desmoplastic cerebellar medulloblastoma cell line) were treated with IRDye® 700DX small molecule conjugates (IRDye® 700DX labeled chlorotoxin, anti-EGFR Affibody®, RGD peptide and EGF ligand). Apoptosis was measured by evaluating caspase 3/7 activity and mitochondrial membrane potential. Apoptosis can be characterized by a variety of cell morphological and biochemical changes including membrane blebbing, cell shrinkage, alteration of membrane asymmetry and permeability, and/or condensation of chromatin and nucleus (Coleman et al., Nat Cell Biol, 2001, 3(4):339-45, Bortner and Cidlowski, Biochem Pharmacol, 1998, 56(12):1549-59; van Engeland et al., Experimental Cell Research, 1997, 235:421-430).\nMicroscopy images of cells in petri-dishes were captured at 20 h post irradiation. The images were captured in DIC and 700 nm to visualize the probe, and composite images were generated (DIC+700 nm) to visualize the overlay.\nas §2"}, "[4]": {"conditions": "irradiated (I) 32 J/cm^2, RGD 0.5 μM, EGF 0.5 μM, NHSe 5 μM, Pan ~0.1 μM"}, "[5]": {"conditions": "no irradiation (NI), RGD-700DX 0.5 μM"}}, "data": [{"smiles": "C[Si](C)(CCC[N+](CCCS(=O)(=O)O)(CCCS(=O)(=O)O)CCCS(=O)(=O)O)O[Si-2]123(O[Si](C)(C)CCC[N+](CCCS(=O)(=O)O)(CCCS(=O)(=O)O)CCCS(=O)(=O)O)n4c5c6ccccc6c4N=C4c6cccc(OCCCOC(=O)NCCCCCC(=O)NCCCC[C@@H]7NC(=O)[C@@H](Cc8ccccc8)NC(=O)[C@H](CC(=O)O)NC(=O)CNC(=O)[C@H](CCCNC(=N)N)NC7=O)c6C(=[N+]41)N=c1c4ccccc4c(n12)=NC1=[N+]3C(=N5)c2ccccc21", "note": "[RGD-700DX]", "values": [{"measurement": "% Healthy", "setting": "A431 cells; [4]", "result": 91.6, "unit": "%"}, {"measurement": "% Necrotic", "setting": "A431 cells; [4]", "result": 7, "unit": "%"}, {"measurement": "Cells/mL", "setting": "A431 cells; [4]", "result": "6.6 × 10^5 Cells/mL"}, {"measurement": "Low % Vitality", "setting": "A431 cells; [4]", "result": 2, "unit": "%"}, {"measurement": "% Healthy", "setting": "A431 cells; [5]", "result": 90.8, "unit": "%"}, {"measurement": "% Necrotic", "setting": "A431 cells; [5]", "result": 5, "unit": "%"}, {"measurement": "Cells/mL", "setting": "A431 cells; [5]", "result": "5.8 × 10^5 Cells/mL"}, {"measurement": "Low % Vitality", "setting": "A431 cells; [5]", "result": 4, "unit": "%"}, {"measurement": "Caspase 3 % late apoptotic + dead cells", "setting": "HTB-186 cells [1]", "result": 57, "unit": "%"}, {"measurement": "JC-1 % shift", "setting": "HTB-186 cells [2]", "result": 44, "unit": "%"}, {"measurement": "cell morphology", "setting": "HTB-186 cells [3]; 32 J/cm^2, 20 h post irradiation", "result": "appeared rounded and smaller"}, {"measurement": "Cell #", "setting": "HTB-186 cells [3]; 32 J/cm^2, probe about 5 hours, 20 hours post irradiation, 700DX-RGD and 700DX-EGF 500 nM", "result": "0.6E6"}]}]}
